Assay results from patent US9382188B2, “Aromatic ring compound” (TAKEDA PHARMACEUTICAL COMPANY LIMITED, priority 2012, dated 2016).

What follows are molecules tested against T1, human GPR40 (Homo sapiens, UniProt O14842) (assay: Evaluation of human GPR40 agonist activity with increase in intracellular Ca2+ concentration as an index (FLIPR Tetra)). Settings: test compound 1 μM; CHO(dhfr-) cells stably expressing human GPR40; 100% = activity of 1 μM WO2009/048527 Example 99.2, 0% = DMSO.
T1 construct: expressed in transfected cells
T1 sequence (O14842 whole entry): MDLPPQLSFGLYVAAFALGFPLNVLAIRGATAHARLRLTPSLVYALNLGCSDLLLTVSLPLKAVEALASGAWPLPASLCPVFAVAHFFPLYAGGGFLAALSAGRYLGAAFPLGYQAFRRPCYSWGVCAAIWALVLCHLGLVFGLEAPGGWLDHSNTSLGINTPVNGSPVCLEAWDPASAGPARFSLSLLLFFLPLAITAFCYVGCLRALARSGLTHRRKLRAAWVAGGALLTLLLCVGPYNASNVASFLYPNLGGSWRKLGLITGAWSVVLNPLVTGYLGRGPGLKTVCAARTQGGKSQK
Assay type: cell-based
Procedure: Evaluation of human GPR40 agonist activity with increase in intracellular Ca^2+ concentration as an index
CHO(dhfr-) cells that stably expressed human GPR40 were suspended in MEMα (Nikken Bio Medical Laboratory) containing 10% dialysis serum (GEMINI BIO-PRODUCTS), 10 mM HEPES (Invitrogen), 100 U/mL penicillin, 100 μg/mL streptomycin (Invitrogen), and plated on a 384 well black/clear cell culture plate at 10,000 cells/well. After culture overnight in a CO2 incubator at 37° C., the culture supernatant was removed, and a loading buffer [dye attached to Calcium 5 Assay Kit (Molecular Devices) was dissolved in an assay buffer (20 mM HEPES, 0.2% fatty acid-free BSA (Sigma-Aldrich), 2.5 mM probenecid (DOJINDO)-containing HBSS (Invitrogen)) added with 0.025% Cremophor EL (DOJINDO)] was added at 37.5 μL/well. After incubation in a CO2 incubator at 37° C. for 1 hr, the cells were stood at room temperature for 15 min, an assay buffer containing the test compound at a final concentration of 1 μM was added at 12.5 μL/well in FLIPR Tetra (Molecular Devices), and the fluorescence amount was successively measured. Human GPR40 agonist activity calculated using an increase in the intracellular Ca^2+ concentration as an index, wherein the activity of 1 μM of the compound described in WO 2009/048527 (WO2009/048527 Example 99.2) was 100%, and the activity when DMSO was added instead of the test compound was 0%.

SMILES | activation at 1 µM [%] | Human GPR40 agonist activity (increase in intracellular Ca2+ concentration) [%]
COc1ccc(F)c(-c2ccc(OCc3cccc(C(CC(=O)O)C4CC4)c3)cc2OC(C)(C)C)c1 (stereo not shown) [Example 74, 3-(3-(((2-tert-butoxy-2′-fluoro-5′-methoxybiphenyl-4-yl)oxy)methyl)phenyl)-3-cyclopropylpropanoic acid] | 104 | 
COc1ccc(F)c(-c2ccc(OCc3cccc(C(CC(=O)O)C4CC4)c3)cc2-c2nnc(C(F)(F)F)s2)c1 (stereo not shown) [Example 75, 3-cyclopropyl-3-(3-(((2′-fluoro-5′-methoxy-2-(5-(trifluoromethyl)-1,3,4-thiadiazol-2-yl)-[1,1′-biphenyl]-4-yl)oxy)methyl)phenyl)propanoic acid] | 91 | 
CC#CC(CC(=O)O)c1cccc(COc2ccc(-c3cc(OC)ccc3F)c(CC(C)(C)C)c2)c1 (stereo not shown) [Example 76, 3-(3-(((2′-fluoro-5′-methoxy-2-neopentyl-[1,1′-biphenyl]-4-yl)oxy)methyl)phenyl)hex-4-ynoic acid] | 95 | 
COc1ccc(F)c(-c2ccc(OCc3cccc(C(C#CC4CC4)CC(=O)O)c3)cc2CC(C)(C)C)c1 (stereo not shown) [Example 77, 5-cyclopropyl-3-(3-(((2′-fluoro-5′-methoxy-2-neopentyl-[1,1′-biphenyl]-4-yl)oxy)methyl)phenyl)pent-4-ynoic acid] | 101 | 
COc1ccc(F)c(-c2ccc(OCc3cccc(C(CC(=O)O)C(C)C)c3)cc2CC(C)(C)C)c1 (stereo not shown) [Example 78, 3-(3-(((2′-fluoro-5′-methoxy-2-neopentyl-[1,1′-biphenyl]-4-yl)oxy)methyl)phenyl)-4-methylpentanoic acid] | 118 | 
C=CC(CC(=O)O)c1cccc(COc2ccc(-c3cc(OC)ccc3F)c(CC(C)(C)C)c2)c1 (stereo not shown) [Example 79, 3-(3-(((2′-fluoro-5′-methoxy-2-neopentyl-[1,1′-biphenyl]-4-yl)oxy)methyl)phenyl)pent-4-enoic acid] | 134 | 
CCC(CC(=O)O)c1cccc(COc2ccc(-c3cc(OC)ccc3F)c(CC(C)(C)C)c2)c1 (stereo not shown) [Example 80, 3-(3-(((2′-fluoro-5′-methoxy-2-neopentyl-[1,1′-biphenyl]-4-yl)oxy)methyl)phenyl)pentanoic acid] | 94 | 
CCOC(=O)CC(CC(=O)O)c1cccc(COc2ccc(-c3cc(OC)ccc3F)c(CC(C)(C)C)c2)c1 (stereo not shown) [Example 81, 5-ethoxy-3-(3-(((2′-fluoro-5′-methoxy-2-neopentyl-[1,1′-biphenyl]-4-yl)oxy)methyl)phenyl)-5-oxopentanoic acid] | 134 | 
COc1ccc(F)c(-c2ccc(OCc3cccc(C(CC(=O)O)CC(=O)O)c3)cc2CC(C)(C)C)c1 [Example 82, 3-(3-(((2′-fluoro-5′-methoxy-2-neopentyl-[1,1′-biphenyl]-4-yl)oxy)methyl)phenyl)pentanedioic acid] | 5 | 
COc1ccc(F)c(-c2ccc(OCc3cccc(C(CC(N)=O)CC(=O)O)c3)cc2CC(C)(C)C)c1 (stereo not shown) [Example 83, 5-amino-3-(3-(((2′-fluoro-5′-methoxy-2-neopentyl-[1,1′-biphenyl]-4-yl)oxy)methyl)phenyl)-5-oxopentanoic acid] | 34 | 
COc1ccc(F)c(-c2ccc(OCc3cccc(C(CC(=O)O)C(C)(C)C#N)c3)cc2CC(C)(C)C)c1 (stereo not shown) [Example 84, 4-cyano-3-(3-(((2′-fluoro-5′-methoxy-2-neopentyl-[1,1′-biphenyl]-4-yl)oxy)methyl)phenyl)-4-methylpentanoic acid] | 90 | 
COc1ccc(F)c(-c2ccc(OCc3cccc(C(CC(=O)O)C(F)(F)C(F)(F)F)c3)cc2CC(C)(C)C)c1 (stereo not shown) [Example 85, 4,4,5,5,5-pentafluoro-3-(3-(((2′-fluoro-5′-methoxy-2-neopentyl-[1,1′-biphenyl]-4-yl)oxy)methyl)phenyl)pentanoic acid] | 96 | 
COc1ccc(F)c(-c2ccc(OCc3cccc(C(CC(=O)O)C(C)(F)F)c3)cc2CC(C)(C)C)c1 (stereo not shown) [Example 86, 4,4-difluoro-3-(3-(((2′-fluoro-5′-methoxy-2-neopentyl-[1,1′-biphenyl]-4-yl)oxy)methyl)phenyl)pentanoic acid] | 95 | 
COc1ccc(F)c(-c2ccc(OCc3cccc(C(CC(=O)O)C4CC4C#N)c3)cc2CC(C)(C)C)c1 (stereo not shown) [Example 87, 3-(2-cyanocyclopropyl)-3-(3-(((2′-fluoro-5′-methoxy-2-neopentyl-[1,1′-biphenyl]-4-yl)oxy)methyl)phenyl)propanoic acid] | 98 | 
COc1ccc(F)c(-c2ccc(OCc3cccc(C(CC(=O)O)C4CC4C#N)c3)cc2CC(C)(C)C)c1 (stereo not shown) [Example 88, 3-(2-cyanocyclopropyl)-3-(3-(((2′-fluoro-5′-methoxy-2-neopentyl-[1,1′-biphenyl]-4-yl)oxy)methyl)phenyl)propanoic acid] |  | 112
COc1ccc(F)c(-c2ccc(OCc3cccc(C(CCCC#N)CC(=O)O)c3)cc2CC(C)(C)C)c1 (stereo not shown) [Example 89, 6-cyano-3-(3-(((2′-fluoro-5′-methoxy-2-neopentyl-[1,1′-biphenyl]-4-yl)oxy)methyl)phenyl)hexanoic acid] | 94 | 
COc1ccc(F)c(-c2ccc(OCc3cccc(C(CC(=O)O)C4CC4C#N)c3)cc2CC(C)(C)C)c1 (stereo not shown) [Example 90, 3-(2-cyanocyclopropyl)-3-(3-(((2′-fluoro-5′-methoxy-2-neopentyl-[1,1′-biphenyl]-4-yl)oxy)methyl)phenyl)propanoic acid] |  | 107
COc1ccc(F)c(-c2ccc(OCc3cccc(C(CC(=O)O)C4CC4C#N)c3)cc2CC(C)(C)C)c1 (stereo not shown) [Example 91, 3-(2-cyanocyclopropyl)-3-(3-(((2′-fluoro-5′-methoxy-2-neopentyl-[1,1′-biphenyl]-4-yl)oxy)methyl)phenyl)propanoic acid] |  | 97
COc1ccc(F)c(-c2ccc(OCc3cccc(C(CC(=O)O)C4CC4)c3)cc2CCC(C)(C)OC)c1 (stereo not shown) [Example 92, 3-cyclopropyl-3-(3-(((2′-fluoro-5′-methoxy-2-(3-methoxy-3-methylbutyl)biphenyl-4-yl)oxy)methyl)phenyl)propanoic acid] | 113 | 
COc1ccc(F)c(-c2ccc(OCc3cccc(C(CC(=O)O)C4CC4)c3)cc2CCC(C)(C)C)c1 (stereo not shown) [Example 93, 3-cyclopropyl-3-(3-(((2-(3,3-dimethylbutyl)-2′-fluoro-5′-methoxybiphenyl-4-yl)oxy)methyl)phenyl)propanoic acid] | 106 | 
COc1ccc(F)c(-c2ccc(OCc3cccc(C(CC(=O)O)C4CC4)c3)cc2C(F)CC(C)(C)C)c1 (stereo not shown) [Example 94, 3-cyclopropyl-3-(3-(((2′-fluoro-2-(1-fluoro-3,3-dimethylbutyl)-5′-methoxybiphenyl-4-yl)oxy)methyl)phenyl)propanoic acid] | 110 | 
COc1ccc(F)c(-c2ccc(OCc3cccc(C(CC(=O)O)C4CC4)c3)cc2C(O)C(C)(C)C)c1 (stereo not shown) [Example 95] | 107 | 
COc1ccc(F)c(-c2ccc(OCc3cccc(C(CC(=O)O)C4CC4)c3)cc2C2CC(C)(C)OC(C)(C)C2)c1 (stereo not shown) [Example 96, 3-cyclopropyl-3-(3-(((2′-fluoro-5′-methoxy-2-(2,2,6,6-tetramethyltetrahydro-2H-pyran-4-yl)biphenyl-4-yl)oxy)methyl)phenyl)propanoic acid] | 140 | 
COc1ccc(F)c(-c2ccc(OCc3cccc(C(CC(=O)O)C4CC4)c3)cc2CC2(C)CCCC2)c1 (stereo not shown) [Example 97, 3-cyclopropyl-3-(3-(((2′-fluoro-5′-methoxy-2-((1-methylcyclopentyl)methyl)biphenyl-4-yl)oxy)methyl)phenyl)propanoic acid] | 118 | 
COc1ccc(F)c(-c2ccc(OCc3cccc(C(CC(=O)O)C4CC4)c3)cc2C(C)C(C)(C)C)c1 (stereo not shown) [Example 98, 3-cyclopropyl-3-(3-(((2-(3,3-dimethylbutan-2-yl)-2′-fluoro-5′-methoxybiphenyl-4-yl)oxy)methyl)phenyl)propanoic acid] | 96 | 
COc1ccc(F)c(-c2ccc(OCc3cccc(C(CC(=O)O)C4CC4)c3)cc2CC2(C#N)CCCCC2)c1 (stereo not shown) [Example 99, 3-(3-(((2-((1-cyanocyclohexyl)methyl)-2′-fluoro-5′-methoxybiphenyl-4-yl)oxy)methyl)phenyl)-3-cyclopropylpropanoic acid] | 93 | 
CCC1(Cc2cc(OCc3cccc(C(CC(=O)O)C4CC4)c3)ccc2-c2cc(OC)ccc2F)CCCC1 (stereo not shown) [Example 100, 3-cyclopropyl-3-(3-(((2-((1-ethylcyclopentyl)methyl)-2′-fluoro-5′-methoxybiphenyl-4-yl)oxy)methyl)phenyl)propanoic acid] | 105 | 
COc1ccc(F)c(-c2ccc(OCc3cccc(C(CC(=O)O)C4CC4)c3)cc2C(F)C2(C#N)CCCC2)c1 (stereo not shown) [Example 101, 3-(3-(((2-((1-cyanocyclopentyl)(fluoro)methyl)-2′-fluoro-5′-methoxybiphenyl-4-yl)oxy)methyl)phenyl)-3-cyclopropylpropanoic acid] | 106 | 
